Reference: patent US5472966A, “Antidepressant heteroarylaminoalkyl derivatives of naphthyl-monazines” (Bristol-Myers Squibb Company, priority 1995, dated 1995)
Structures can show the parent of a compound that is named as a salt.

These compounds were tested on serotonin re-uptake (synaptosomal re-uptake of tritiated serotonin) (assay: Inhibition of synaptosomal re-uptake of tritiated serotonin). Details: in vitro; nM of test compound that inhibits uptake by 50%; read-out: SUI (Serotonin Uptake Inhibition potency), in vitro IC50.
Type: biochemical
Method: Determination of endogenous monoaminergic re-uptake inhibition values for serotonin was accomplished using test methods described by P. Skolnick, et al., Br. J. Pharmacology, (1985), 86, pp. 637-644; with only minor modifications. In vitro IC50 (nM) test values were determined for representative compounds of Formula I based on their inhibition of synaptosomal re-uptake of tritiated serotonin. Test data IC50 values lower than 500 nM are considered to reflect activity as an inhibitor of serotonin re-uptake.
In the case of `COc1cncnc1NCCCN1CC=C(c2cccc3ccccc23)CC1` [Example 27, 3.6-dihydro-4-(1-naphthalenyl)-N-(5-methoxy-4-pyrimidinyl)-1(2H)-pyridinepropanamine hydrochloride], the IC50 is reported as less than 10 nM.
`COc1cncnc1N(C)CCCN1CC=C(c2cccc3ccccc23)CC1` [Example 21, 3,6-dihydro-N-(5-methoxy-4-pyrimidinyl)-N-methyl-4-(1-naphthalenyl)-1(2H)-pyridinepropanamine fumarate] was tested, and the IC50 was less than 10 nM.
With `CN(CCCN1CC=C(c2cccc3ccccc23)CC1)c1ccc(Cl)cn1` [Example 17, 3,6-dihydro-N-methyl-N-(5-chloro-2-pyridinyl)-4-(1-naphthalenyl)-1(2H)-pyridinepropanamine fumarate] the IC50 was less than 10 nM.
Work on `CCOc1cccnc1NCCCN1CC=C(c2cccc3ccccc23)CC1` [Example 34, 3,6-dihydro-N-(3-ethoxy-2-pyridinyl)-4-(1-naphthalenyl)-1(2H)-pyridinepropanamine fumarate] yielded an IC50 of less than 10 nM.
`CCOc1cccnc1N(C)CCCN1CC=C(c2cccc3ccccc23)CC1` [Example 15, 3,6-dihydro-N-(3-ethoxy-2-pyridinyl)-N-methyl-4-(1-naphthalenyl)-1(2H)-pyridinepropanamine fumarate] was tested, and the IC50 was less than 100 nM.
`C1=C(c2cccc3ccccc23)CCN(CCCNc2cccc3ccccc23)C1` [Example 39, 3,6-dihydro-N-(1-naphthalenyl)-4-(1-naphthalenyl)-1(2H)-pyridinepropanamine fumarate] gave an IC50 of less than 10 nM.
`COc1cncnc1NCCCN1CC=C(c2cccc3ccc(Cl)cc23)CC1` [Example 25, 3,6-dihydro-4-(7-chloro-1-naphthalenyl)-N-(5-methoxy-4-pyrimidinyl)-1(2H)-pyridinepropanamine fumarate] was tested, and the IC50 was less than 500 nM.
`COc1cncnc1NCCCCN1CC=C(c2cccc3ccccc23)CC1` [Example 32, 3,6-dihydro-N-(5-methoxy-4-pyrimidinyl)-4-(1-naphthalenyl)-1(2H)-pyridinebutanamine fumarate] showed an IC50 of less than 100 nM.
`Clc1nccnc1NCCCN1CC=C(c2cccc3ccccc23)CC1` [Example 30, 3,6-dihydro-4-(1-naphthalenyl)-N-(3-chloro-2-pyrazinyl)-1(2H)-pyridinepropanamine fumarate] was tested, and the IC50 was less than 10 nM.
In the case of `Clc1cccc(NCCCN2CC=C(c3cccc4ccccc34)CC2)c1` [Example 41, 3,6-dihydro-N-(3-chlorophenyl)-4-(1-naphthalenyl)-1(2H)-pyridinepropanamine fumarate], the IC50 is reported as less than 100 nM.
`COc1cnccc1NCCCN1CC=C(c2cccc3ccccc23)CC1` [Example 29, 3,6-dihydro:4-(1-naphthalenyl)-N-(3-methoxy-4-pyridinyl)-1(2H)-pyridinepropanamine fumarate] was tested, and the IC50 was less than 100 nM.
For `COc1ccc2cccc(C3=CCN(CCCNc4ncncc4OC)CC3)c2c1` [Example 23, 3,6-dihydro-4-(7-methoxy-1-naphthalenyl)-N-(5-methoxy-4-pyrimidinyl)-1(2H)-pyridinepropanamine fumarate], the IC50 was less than 100 nM.
`CN(CCCN1CC=C(c2cccc3ccccc23)CC1)c1cccc(C(F)(F)F)n1` [Example 18, 3,6-dihydro-N-methyl-N-(6-trifluoromethyl-2-pyridinyl)-4-(1-naphthalenyl)-1(2H)-pyridinepropanamine fumarate] showed an IC50 of less than 100 nM.
Work on `COc1cncnc1NCCCN1CC=C(c2cccc3ccc(F)cc23)CC1` [Example 24, 3,6-dihydro-4-(7-fluoro-1-naphthalenyl)-N-(5-methoxy-4-pyrimidinyl-1(2H)-pyridinepropanamine fumarate] yielded an IC50 of less than 500 nM.
In the case of `COc1cccnc1N(C)CCCN1CC=C(c2cccc3ccccc23)CC1` [Example 14, 3,6-dihydro-N-(3-methoxy-2-pyridinyl)-N-methyl-4-(1-naphthalenyl)-1(2H)-pyridinepropanamine fumarate], the IC50 is reported as less than 100 nM.
`CN(CCCN1CC=C(c2cccc3ccccc23)CC1)c1cc(C(F)(F)F)ccn1` [Example 16, 3,6-dihydro-N-methyl-N-(4-trifluoromethyl-2-pyridinyl)-4-(1-naphthalenyl)-1(2H)-pyridinepropanamine fumarate] showed an IC50 of less than 100 nM.
With `COc1cncnc1NCCN1CC=C(c2cccc3ccccc23)CC1` [Example 26, 3.6-dihydro-4-(1-naphthalenyl)-N-(5-methoxy-4-pyrimidinyl)-1(2H)-pyridineethanamine fumarate] the IC50 was less than 100 nM.
For `FC(F)(F)c1cccc(NCCCN2CC=C(c3cccc4ccccc34)CC2)n1` [Example 35, 3,6-dihydro-N-(6-trifluoromethyl-2-pyridinyl)-4-(1-napthalenyl)-1(2H)-pyridinepropanamine fumarate], the IC50 was less than 100 nM.
`CN(CCCN1CC=C(c2cccc3ccccc23)CC1)c1ccnc(Cl)c1` [Example 20, 3,6-dihydro-N-methyl-N-(2-chloro-4-pyridinyl)-4-(1-naphthalenyl)-1(2H)-pyridinepropanamine fumarate] was tested, and the IC50 was less than 10 nM.
Compound `FC(F)(F)c1cccc(NCCCN2CC=C(c3cccc4ccccc34)CC2)c1` [Example 42, 3,6-dihydro-N-(3-trifluoromethylphenyl)-4-(1-naphthalenyl)-1(2H)-pyridinepropanamine fumarate] has an IC50 of less than 100 nM.
Work on `CN(CCCN1CC=C(c2cccc3ccccc23)CC1)c1cc(Cl)ccn1` [Example 19, 3,6.dihydro-N-methyl-N-(4-chloro-2-pyridinyl)-4-(1-naphthalenyl)-1(2H)-pyridinepropanamine] yielded an IC50 of less than 100 nM.
Compound `Clc1ccc(NCCCN2CC=C(c3cccc4ccccc34)CC2)nc1` [Example 36, 3,6-dihydro-N-(5-chloro-2-pyridinyl)-4-(1-naphthalenyl)-1(2H)-pyridinepropanamine fumarate] has an IC50 of less than 10 nM.
`COc1cccnc1NCCCN1CC=C(c2cccc3ccccc23)CC1` [Example 33, 3,6-dihydro-N-(3-methoxy-2-pyridinyl)-4-(1-naphthalenyl)-1(2H)pyridinepropanamine fumarate] showed an IC50 of less than 10 nM.
For `COc1ccccc1NCCCN1CC=C(c2cccc3ccccc23)CC1` [Example 40, 3,6-dihydro-N-(2-methoxyphenyl)-4-(1-naphthalenyl)-1-(2H)-pyridinepropanamine fumarate], the IC50 was less than 10 nM.
`COc1nccnc1NCCCN1CC=C(c2cccc3ccccc23)CC1` [Example 31, 3,6-dihydro-4-(1-naphthalenyl)-N-(3-methoxy-2-pyrazinyl)-1(2H)-pyridinepropanamine fumarate] gave an IC50 of less than 10 nM.
For `COc1cncnc1NCCCN1CCC(c2cccc3ccccc23)CC1` [Example 38, 4-(1-naphthalenyl)-N-(5-methoxy-4-pyrimidinyl)-1-piperidinepropanaminefumarate], the IC50 was less than 10 nM.
`FC(F)(F)c1ccnc(NCCCN2CC=C(c3cccc4ccccc34)CC2)c1` [Example 37, 3,6dihydro-N-(4-trifluromethyl-2-pyridinyl)-4-(1-napthalenyl-1(2H)-pyridinepropanamine fumarate] was tested, and the IC50 was less than 100 nM.
Work on `CCN(CCCN1CC=C(c2cccc3ccccc23)CC1)c1ncncc1OC` [Example 22, 3,6-dihydro-N-(5-methoxy-4-pyrimidinyl)-N-ethyl-4-(1-naphthalenyl)-1(2H)-pyridinepropanamine fumarate] yielded an IC50 of less than 10 nM.
`CCOc1cncnc1NCCCN1CC=C(c2cccc3ccccc23)CC1` [Example 28, 3,6-dihydro-4-(1-naphthalenyl)-N-(5-ethoxy-4-pyrimidinyl)-1-(2H)-pyridinepropanamine fumarate] was tested, and the IC50 was less than 10 nM.
